Patent US4357325A, “Methods of controlling Pasteurella infections” (Eli Lilly and Company, priority 1981, dated 1982)
Converted amounts (≈) assume the structure as drawn.

How the values were obtained:
Pasteurella multocida [1] = assay: Treatment of Pasteurellosis in chicks (Table III); assay type: in vivo, chicks; avian P. multocida; conditions: 1 and 4 h post challenge, 5 days observation, ten chicks per group
Method: Representative compounds were evaluated in groups of ten one-day-old chicks at the specified dosage of subcutaneous injection given one and four hours post challenge of the chicks with Pasteurella multocida (0.1 ml of a 20-hour tryptose broth culture of an avian P. multocida given subcutaneously). The compounds (as free bases) were administered in an aqueous propylene glycol solution; non-medicated water and feed were provided to the animals ad libitum.

P. multocida = assay: MIC by conventional broth-dilution assay against P. multocida strains (Table II); assay type: cell-based, P. multocida (avian, bovine and porcine strains); conditions: Pasteurella multocida
Method: (§1) For example, representative compounds were tested against avian, bovine and porcine Pasteurella species, using the conventional broth-dilution assay. The P. haemolytica strains are bovine strains; the P. multocida strains are avian, bovine and porcine strains.

Pasteurella multocida [2] = assay: Treatment of Pasteurellosis in mice (Table IV); assay type: in vivo, mice; bovine isolate of P. multocida; conditions: 50 mg/kg × 2 s.c., 1 and 4 h post challenge, 7 days
Method: Cirramycin A1 and rosaramicin were evaluated in mice by subcutaneous injection given one and four hours post challenge of the mice with Pasteurella multocida (0.1 ml of a 10^-5 dilution of a tryptose broth culture of a bovine isolate). Mortality was evaluated for the following seven days.

P. haemolytica = assay: MIC by conventional broth-dilution assay against P. haemolytica strains (Table II); assay type: cell-based, P. haemolytica (bovine strains); conditions: Mannheimia haemolytica
Method: as §1

[3] = 30 mg/kg × 2 s.c., first (or only) experiment
[4] = 30 mg/kg × 2 s.c., second experiment

MIC (P. multocida; P. multocida strain 17E) [µg/mL] | MIC (P. multocida; P. multocida strain 22A) [µg/mL] | MIC (P. multocida; P. multocida strain 40G) [µg/mL] | MIC (P. multocida; P. multocida strain 60A) [µg/mL] | MIC (P. multocida; P. multocida strain 68C) [µg/mL] | Structure (SMILES) | Deaths in Treated Chicks/Deaths in Infected Nonmedicated Controls (Pasteurella multocida [1]; [3]) | Deaths in Treated Chicks/Deaths in Infected Nonmedicated Controls (Pasteurella multocida [1]; 60 mg/kg × 2 s.c.) | No. Died/No. Treated (Pasteurella multocida [2]; Test A, replicate 1) | No. Died/No. Treated (Pasteurella multocida [2]; Test A, replicate 2) | No. Died/No. Treated (Pasteurella multocida [2]; Test B, replicate 1) | No. Died/No. Treated (Pasteurella multocida [2]; Test B, replicate 2) | MIC (P. haemolytica; P. haemolytica strain 23A) [µg/mL] | MIC (P. haemolytica; P. haemolytica strain 23C) [µg/mL] | MIC (P. haemolytica; P. haemolytica strain 41D) [µg/mL] | Deaths in Treated Chicks/Deaths in Infected Nonmedicated Controls (Pasteurella multocida [1]; [4])
12.5 (≈ 16.2 µM) | 12.5 (≈ 16.2 µM) | 12.5 (≈ 16.2 µM) | 12.5 (≈ 16.2 µM) | 12.5 (≈ 16.2 µM) | CCC1OC(=O)CC(O)C(C)C(OC2OC(C)C(O)C(N(C)C)C2O)C(CC=O)CC(C)C(O)C=CC(C)=CC1COC1OC(C)C(O)C(OC)C1OC (stereo not shown) [9-Dihydrodesmycosin, 9-dihydrodesmycosin] | 3/10 | – | – | – | – | – | 25 (≈ 32.3 µM) | 25 (≈ 32.3 µM) | 25 (≈ 32.3 µM) | 0/10
12.5 (≈ 16.5 µM) | 12.5 (≈ 16.5 µM) | 25 (≈ 33 µM) | 6.25 (≈ 8.25 µM) | 6.25 (≈ 8.25 µM) | CCC1OC(=O)CC(O)C(C)C(OC2OC(C)C(O)C(N(C)C)C2O)C(CC=O)CC(C)C(=O)C=CC(C)=CC1COC1OC(C)C(O)C(O)C1OC (stereo not shown) [Lactenocin, lactenocin] | 0/10 | – | – | – | – | – | 25 (≈ 33 µM) | 25 (≈ 33 µM) | 50 (≈ 66 µM) | 0/10
12.5 (≈ 16.2 µM) | 12.5 (≈ 16.2 µM) | 25 (≈ 32.4 µM) | 12.5 (≈ 16.2 µM) | 6.25 (≈ 8.1 µM) | CCC1OC(=O)CC(O)C(C)C(OC2OC(C)C(O)C(N(C)C)C2O)C(CC=O)CC(C)C(=O)C=CC(C)=CC1COC1OC(C)C(O)C(OC)C1OC (stereo not shown) [Desmycosin, desmycosin] | 0/10 | – | – | – | – | – | 25 (≈ 32.4 µM) | 25 (≈ 32.4 µM) | 25 (≈ 32.4 µM) | 0/10
1.56 (≈ 2.68 µM) | 1.56 (≈ 2.68 µM) | 3.12 (≈ 5.36 µM) | ≤ 0.78 | ≤ 0.78 | CCC1OC(=O)CC(O)C(C)C(OC2OC(C)C(O)C(N(C)C)C2O)C(CC=O)CC(C)C(=O)C=CC(C)=CC1C (stereo not shown) [DOMT, 23-deoxy-5-O-mycaminosyltylonolide] | 1/9 | – | – | – | – | – | 3.12 (≈ 5.36 µM) | 3.12 (≈ 5.36 µM) | 6.75 (≈ 11.6 µM) | 1/10
25 (≈ 32.3 µM) | 25 (≈ 32.3 µM) | 50 (≈ 64.6 µM) | 25 (≈ 32.3 µM) | 6.25 (≈ 8.08 µM) | CCC1OC(=O)CC(O)C(C)C(OC2OC(C)C(O)C(N(C)C)C2O)C(CCO)CC(C)C(=O)C=CC(C)=CC1COC1OC(C)C(O)C(OC)C1OC (stereo not shown) [20-Dihydrodesmycosin, 20-dihydrodesmycosin] | 0/10 | – | – | – | – | – | 50 (≈ 64.6 µM) | 50 (≈ 64.6 µM) | 50 (≈ 64.6 µM) | 0/10

Structure (SMILES) | MIC (P. multocida; P. multocida strain 17E) [µg/mL] | MIC (P. multocida; P. multocida strain 22A) [µg/mL] | MIC (P. multocida; P. multocida strain 40G) [µg/mL] | MIC (P. multocida; P. multocida strain 60A) [µg/mL] | MIC (P. multocida; P. multocida strain 68C) [µg/mL] | Deaths in Treated Chicks/Deaths in Infected Nonmedicated Controls (Pasteurella multocida [1]; [3]) | Deaths in Treated Chicks/Deaths in Infected Nonmedicated Controls (Pasteurella multocida [1]; 60 mg/kg × 2 s.c.) | No. Died/No. Treated (Pasteurella multocida [2]; Test A, replicate 1) | No. Died/No. Treated (Pasteurella multocida [2]; Test A, replicate 2) | No. Died/No. Treated (Pasteurella multocida [2]; Test B, replicate 1) | No. Died/No. Treated (Pasteurella multocida [2]; Test B, replicate 2) | MIC (P. haemolytica; P. haemolytica strain 23A) [µg/mL] | MIC (P. haemolytica; P. haemolytica strain 23C) [µg/mL] | MIC (P. haemolytica; P. haemolytica strain 41D) [µg/mL] | Deaths in Treated Chicks/Deaths in Infected Nonmedicated Controls (Pasteurella multocida [1]; [4])
CC[C@H]1OC(=O)C[C@@H](O)[C@H](C)[C@@H](O[C@@H]2O[C@H](C)C[C@H](N(C)C)[C@H]2O)[C@@H](CC=O)C[C@@H](C)C(=O)/C=C/[C@]2(C)O[C@H]2[C@@H]1C [Rosaramicin, rosaramicin] | ≤ 0.78 | 1.56 (≈ 2.68 µM) | 1.56 (≈ 2.68 µM) | ≤ 0.78 | ≤ 0.78 | 5/8 | 2/8 | 0/5 | 0/5 | 0/5 | 3/5 | 1.56 (≈ 2.68 µM) | 12.5 (≈ 21.5 µM) | 1.56 (≈ 2.68 µM) | –
CCC1OC(=O)CC(O)C(C)C(OC2OC(C)C(O)C(N(C)C)C2O)C(CC=O)CC(C)C(=O)C=CC2(C)OC2C1C (stereo not shown) [Cirramycin A1, cirramycin A1] | 1.56 (≈ 2.61 µM) | 3.12 (≈ 5.22 µM) | 3.12 (≈ 5.22 µM) | ≤ 0.78 | 1.56 (≈ 2.61 µM) | – | – | 1/5 | 2/5 | 1/5 | 0/5 | 3.12 (≈ 5.22 µM) | 3.12 (≈ 5.22 µM) | 3.12 (≈ 5.22 µM) | –
